{"source": "patent US12077503B2", "about": "“Substituted cyclic amides and their use as herbicides” (FMC CORPORATION, priority 2015, dated 2024)", "assay_type_in_all_cases": "in vivo", "key": {"[1]": {"test_system": "barnyardgrass (Echinochloa crus-galli)", "assay": "Test A preemergence", "details": "Echinochloa crus-galli, pre-emergence, 240 h", "summary_of_the_method": "(§1)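 Compounds were formulated in a non-phytotoxic solvent mixture with surfactant and applied as a preemergence directed soil spray after seeding, or sprayed postemergence over plants 2 to 10 cm tall at the one- to two-leaf stage. Evaluation after about 10 d compared treated with untreated controls, using a scale from 0 (no effect) to 100 (complete control).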"}, "Kochia (Kochia scoparia) [2]": {"test_system": "Kochia (Kochia scoparia)", "assay": "Test A preemergence", "details": "Bassia scoparia, pre-emergence, 240 h", "summary_of_the_method": "as §1"}, "[3]": {"test_system": "pigweed (Amaranthus retroflexus)", "assay": "Test A preemergence", "details": "Amaranthus retroflexus, pre-emergence, 240 h"}, "[4]": {"test_system": "ragweed (common ragweed, Ambrosia elatior)", "assay": "Test A preemergence", "details": "Ambrosia artemisiifolia, pre-emergence, 240 h", "summary_of_the_method": "as §1"}, "[5]": {"test_system": "ryegrass, Italian (Italian ryegrass, Lolium multiflorum)", "assay": "Test A preemergence", "details": "Lolium multiflorum, pre-emergence, 240 h", "summary_of_the_method": "as §1"}, "[6]": {"test_system": "giant foxtail (Setaria faberii)", "assay": "Test A postemergence", "details": "Setaria faberi, post-emergence, 240 h, 125 g ai/ha, postemergence, visual injury rating after approximately 10 d; read-out: Foxtail, Giant plant response rating (0 to 100 scale, 0 no effect, 100 complete control)", "summary_of_the_method": "as §1"}, "[7]": {"test_system": "wheat (Triticum aestivum)", "assay": "Test A postemergence", "details": "Triticum aestivum, post-emergence, 240 h, 125 g ai/ha, postemergence, visual injury rating after approximately 10 d; read-out: Wheat plant response rating (0 to 100 scale, 0 no effect, 100 complete control)", "summary_of_the_method": "as §1"}, "[8]": {"test_system": "barnyardgrass (Echinochloa crus-galli)", "assay": "Test A postemergence", "details": "Echinochloa crus-galli, post-emergence, 240 h, 125 g ai/ha, postemergence, visual injury rating after approximately 10 d; read-out: Barnyardgrass plant response rating (0 to 100 scale, 0 no effect, 100 complete control)", "summary_of_the_method": "as §1"}, "[9]": {"test_system": "Galium (catchweed bedstraw, Galium aparine)", "assay": "Test A postemergence", "details": "Galium, post-emergence, 240 h, 125 g ai/ha, postemergence, visual injury rating after approximately 10 d; read-out: Galium plant response rating (0 to 100 scale, 0 no effect, 100 complete control)", "summary_of_the_method": "as §1"}, "corn (Zea mays)": {"test_system": "corn (Zea mays)", "assay": "Test A postemergence", "details": "Zea mays, post-emergence, 240 h, 125 g ai/ha, postemergence, visual injury rating after approximately 10 d; read-out: Corn plant response rating (0 to 100 scale, 0 no effect, 100 complete control)", "summary_of_the_method": "as §1"}, "Kochia (Kochia scoparia) [10]": {"test_system": "Kochia (Kochia scoparia)", "assay": "Test A postemergence", "details": "Bassia scoparia, post-emergence, 240 h, 125 g ai/ha, postemergence, visual injury rating after approximately 10 d; read-out: Kochia plant response rating (0 to 100 scale, 0 no effect, 100 complete control)", "summary_of_the_method": "as §1"}, "[11]": {"test_system": "pigweed (Amaranthus retroflexus)", "assay": "Test A postemergence", "details": "Amaranthus retroflexus, post-emergence, 240 h, 125 g ai/ha, postemergence, visual injury rating after approximately 10 d; read-out: Pigweed plant response rating (0 to 100 scale, 0 no effect, 100 complete control)", "summary_of_the_method": "as §1"}, "[12]": {"test_system": "ragweed (common ragweed, Ambrosia elatior)", "assay": "Test A postemergence", "details": "Ambrosia artemisiifolia, post-emergence, 240 h, 125 g ai/ha, postemergence, visual injury rating after approximately 10 d; read-out: Ragweed plant response rating (0 to 100 scale, 0 no effect, 100 complete control)", "summary_of_the_method": "as §1"}, "[13]": {"test_system": "blackgrass (Alopecurus myosuroides)", "assay": "Test A postemergence", "details": "Alopecurus myosuroides, post-emergence, 240 h, 125 g ai/ha, postemergence, visual injury rating after approximately 10 d; read-out: Blackgrass plant response rating (0 to 100 scale, 0 no effect, 100 complete control)", "summary_of_the_method": "as §1"}, "[14]": {"test_system": "ryegrass, Italian (Italian ryegrass, Lolium multiflorum)", "assay": "Test A postemergence", "details": "Lolium multiflorum, post-emergence, 240 h, 125 g ai/ha, postemergence, visual injury rating after approximately 10 d; read-out: Ryegrass, Italian plant response rating (0 to 100 scale, 0 no effect, 100 complete control)", "summary_of_the_method": "as §1"}}}
{"smiles": "CSc1ccccc1NC(=O)[C@H]1C(=O)N(C)C[C@@H]1c1cc(C)cc(F)c1", "note": "[Compound 851]", "values": [{"measurement": "pest or weed control at 125 g/ha", "setting": "[1]; 125 g ai/ha, preemergence, 0 to 100 scale where 0 is no effect and 100 is complete control, read-out: Barnyardgrass plant response rating", "result": 90, "unit": "%"}, {"measurement": "pest or weed control at 500 g/ha", "setting": "[1]; 500 g ai/ha, Preemergence, visual injury vs untreated controls after approximately 10 d, read-out: Barnyardgrass plant response rating (0 to 100 scale where 0 is no effect and 100 is complete control)", "result": 90, "unit": "%"}, {"measurement": "pest or weed control at 125 g/ha", "setting": "Kochia (Kochia scoparia) [2]; 125 g ai/ha, preemergence, 0 to 100 scale where 0 is no effect and 100 is complete control, read-out: Kochia plant response rating", "result": 20, "unit": "%"}, {"measurement": "pest or weed control at 500 g/ha", "setting": "Kochia (Kochia scoparia) [2]; 500 g ai/ha, Preemergence, visual injury vs untreated controls after approximately 10 d, read-out: Kochia plant response rating (0 to 100 scale where 0 is no effect and 100 is complete control)", "result": 70, "unit": "%"}, {"measurement": "pest or weed control at 125 g/ha", "setting": "[3]; 125 g ai/ha, preemergence, 0 to 100 scale where 0 is no effect and 100 is complete control, read-out: Pigweed plant response rating", "result": 60, "unit": "%"}, {"measurement": "pest or weed control at 500 g/ha", "setting": "[3]; 500 g ai/ha, Preemergence, visual injury vs untreated controls after approximately 10 d, read-out: Pigweed plant response rating (0 to 100 scale where 0 is no effect and 100 is complete control)", "result": 90, "unit": "%"}, {"measurement": "pest or weed control at 125 g/ha", "setting": "[4]; 125 g ai/ha, preemergence, 0 to 100 scale where 0 is no effect and 100 is complete control, read-out: Ragweed plant response rating", "result": 0, "unit": "%"}, {"measurement": "pest or weed control at 500 g/ha", "setting": "[4]; 500 g ai/ha, Preemergence, visual injury vs untreated controls after approximately 10 d, read-out: Ragweed plant response rating (0 to 100 scale where 0 is no effect and 100 is complete control)", "result": 30, "unit": "%"}, {"measurement": "pest or weed control at 125 g/ha", "setting": "[5]; 125 g ai/ha, preemergence, 0 to 100 scale where 0 is no effect and 100 is complete control, read-out: Ryegrass, Italian plant response rating", "result": 0, "unit": "%"}, {"measurement": "pest or weed control at 500 g/ha", "setting": "[5]; 500 g ai/ha, Preemergence, visual injury vs untreated controls after approximately 10 d, read-out: Ryegrass, Italian plant response rating (0 to 100 scale where 0 is no effect and 100 is complete control)", "result": 70, "unit": "%"}, {"measurement": "pest or weed control at 125 g/ha", "setting": "[6]", "result": 90, "unit": "%"}, {"measurement": "plant injury at 125 g/ha", "setting": "[7]", "result": 20, "unit": "%"}, {"measurement": "pest or weed control at 125 g/ha", "setting": "[8]", "result": 90, "unit": "%"}, {"measurement": "pest or weed control at 125 g/ha", "setting": "[9]", "result": 30, "unit": "%"}, {"measurement": "plant injury at 125 g/ha", "setting": "corn (Zea mays)", "result": 0, "unit": "%"}, {"measurement": "pest or weed control at 125 g/ha", "setting": "Kochia (Kochia scoparia) [10]", "result": 0, "unit": "%"}, {"measurement": "pest or weed control at 125 g/ha", "setting": "[11]", "result": 0, "unit": "%"}, {"measurement": "pest or weed control at 125 g/ha", "setting": "[12]", "result": 0, "unit": "%"}, {"measurement": "pest or weed control at 125 g/ha", "setting": "[13]", "result": 0, "unit": "%"}, {"measurement": "pest or weed control at 125 g/ha", "setting": "[14]", "result": 0, "unit": "%"}]}
